{
  "source": "patent US12622890B2",
  "about": "“Use of the active compound in the prevention or treatment of ovarian dysfunction diseases” (INSTITUTE OF BIOPHYSICS, CHINESE ACADEMY OF SCIENCES, priority 2022, dated 2026)",
  "key": {"[1]": {"test": "Body weight of POI model mice before modeling, after modeling and after treatment", "type": "in vivo", "conditions": "for Body weight before modeling: D 0, 100 mg/kg/d oral; for Body weight after modeling: D 7, 100 mg/kg/d oral; for Body weight after treatment: D 13, 100 mg/kg/d oral", "method": "Animal model establishment: A total of 34 C57 female mice (8-week-old) were selected and intraperitoneally injected with the ratio of 120 mg/kg cyclophosphamide (SIGMA) and 30 mg/kg Busulfan (Aladdin) once a day for 1 week at the dose of 0.1 mL/10 g to establish the model of POI.\nGrouping: 34 POI model mice were randomly divided into four groups: sodium fumarate (SF) treatment group (n=9), hyodeoxycholic acid (HDCA) treatment group (n=8), sodium fumarate plus hyodeoxycholic acid (mass ratio 1:1) combination (SF+HDCA) treatment group (n=8) and normal saline (Vehicle) group (n=9). Mice in the SF group were given oral administration of SF at the ratio of 100 mg/kg/d body weight, mice in the HDCA group were given oral administration of HDCA at the ratio of 100 mg/kg/d body weight, and mice in the combination group were given oral administration of SF and HDCA at the ratio of 100 mg/kg/d body weight. SF and HDCA were dissolved with 0.9% normal saline when used. Mice in the vehicle group were given the same amount of normal saline orally. All the mice were treated consecutively for 12 days.\nBody weight were recorded at three time points, before modeling (at the beginning of treatment), after modeling and after treatment.\nAnimal model establishment: A total of 24 C57 mice (8-week-old) were selected and intraperitoneally injected with the ratio of 120 mg/kg cyclophosphamide and 30 mg/kg Busulfan once a day for 1 week at the dose of 0.1 mL/10 g to establish the model of POI.\nGrouping: 24 POI model mice were randomly divided into four groups: dimethyl fumarate (DMF) treatment group (n=5), hyodeoxycholic acid (HDCA) treatment group (n=6), dimethyl fumarate plus hyodeoxycholic acid (mass ratio=1:1) combination (DMF+HDCA) treatment group (n=7) and normal saline (Vehicle) group (n=6). Mice in the DMF treatment group were orally administrated at the ratio of 100 mg/kg/d body weight. Mice in the HDCA treatment group were given oral administration of HDCA at the ratio of 100 mg/kg/d body weight, and mice in the combination group were given oral administration of DMF and HDCA at the ratio of 100 mg/kg/d body weight. Once daily, DMF and HDCA were dissolved in 0.9% normal saline when used. Mice in normal saline group were given the same amount of normal saline orally every day. The drug was administered for 12 days.\nBody weight were recorded at three time points, before modeling (at the beginning of treatment, the 0th day), after modeling (the 7th day) and after treatment (the 13th day).\nThe body weight of POI model mice of each group was measured before modeling, after modeling and after treatment."}, "[2]": {"tested_on": "POI mice", "test": "Serum superoxide dismutase (SOD) level, oxidative stress", "type": "in vivo", "description": "(§1) Biomarkers mentioned herein, such as follicle stimulating hormone (FSH), estrogen (e.g., E2), and superoxide dismutase (SOD), malondialdehyde (MDA), relative reactive oxygen species (ROS), and lactate dehydrogenase (LDH), etc., can be detected using methods commonly known in the field. Detection methods typically cover methods that quantify the level of a biomarker in a sample (quantitative methods). Which of the following methods are suitable for qualitative and/or quantitative detection of biomarkers is generally known to those skilled in the field. Samples can be conveniently measured, for example for proteins using immunoassays such as ELISA, RIA, etc., which are commercially available.\n(§2) After 12 days of administration, half of the mice in each group were sacrificed, and their blood was collected and kept still. The serum was separated after centrifugation at 4500 rpm and stored in a refrigerator at −80° C. for future use to measure levels of follicle stimulating hormone, estrogen, and the indexes of oxidative stress such as superoxide dismutase (SOD) and malondial dehyde (MDA).\n(§3) After 12 days of administration, half of the mice in each group were sacrificed, and their blood was collected and kept in still. The serum was separated after centrifugation at 4500 rpm and stored in a refrigerator at −80° C. for future use to measure levals of follicle stimulating hormone, estrogen, and the indexes of oxidative stress such as superoxide dismutase (SOD) and malondialdehyde (MDA).\n(§4) The oxidative stress hypothesis believes that the reduction of antioxidant components in the body leads to the weakening of the ability to remove free radicals, which leads to oxidative damage of biological macromolecules, and the imbalance of cellular oxidative and antioxidant functions, which leads to oxidative stress, and then leads to disease and aging. Oxygen free radicals act on unsaturated fatty acids of lipids to generate lipid peroxides, including malondialdehyde (MDA) and so on. The antioxidant defense system of scavenging free radicals includes superoxide dismutase (SOD) and so on. Recently, oxidative stress has been reported to be associated with ovarian aging and POI in primates. Therefore, this embodiment examined the effects of DMF, HDCA, and DMF+HDCA on oxidative stress in mice with premature ovarian failure, and the results are shown in Table 5, FIGS. 9 to 12."}, "[3]": {"tested_on": "POI mice", "test": "Serum estradiol (E2) level in POI mice", "type": "in vivo", "conditions": "for E2: serum, after 12 days 100 mg/kg/d oral", "description": "as §1, §2, §3"}, "[4]": {"tested_on": "ovarian tissues", "test": "RNA transcription level sequencing of ovarian tissues, differentially expressed genes", "type": "in vivo, mice", "conditions": "ovarian tissue RNA sequencing, FC>2, Q<0.05", "method": "Mice were sacrificed after various treatments, and ovarian tissues were taken, snap-frozen in liquid nitrogen, stored at −80° C., and sent to Annoroad for RNA transcription level sequencing. Bioinformatics analysis and mapping were performed on the sequencing results. […] The differential genes of the three treatment groups were intersectioned. […] These differential gene sets were then subjected to Gene Ontology function (GO) enrichment (FC>2, Q<0.05) (FIG. 16) and signaling pathway (KEGG) analysis mapping (FIG. 17), respectively."}, "[5]": {"tested_on": "POI mice", "test": "Serum FSH level in POI mice", "type": "in vivo", "conditions": "for FSH: serum, after 12 days 100 mg/kg/d oral", "description": "as §1, §2, §3\n• 1. Hormone levels in mice blood of Example 1 are measured in this embodiment."}, "[6]": {"tested_on": "POI mice", "test": "Serum relative reactive oxygen species (ROS) level", "type": "in vivo", "description": "as §1, §4"}, "[7]": {"tested_on": "POI mice", "test": "Serum malondialdehyde (MDA) level, oxidative stress", "type": "in vivo", "description": "as §1, §2, §3, §4"}, "[8]": {"tested_on": "POI mice", "test": "Serum lactate dehydrogenase (LDH) level", "type": "in vivo", "description": "as §1"}, "[9]": {"conditions": "serum, POI mice after treatment"}, "[10]": {"conditions": "Example 2, FIG. 8, not statistically significant"}},
  "data": [
    {"molecule": "C[C@H](CCC(=O)O)[C@H]1CC[C@H]2[C@@H]3C[C@H](O)[C@@H]4C[C@H](O)CC[C@]4(C)[C@H]3CC[C@]12C", "note": "[HDCA, hyodeoxycholic acid, reference compound]", "values": [
      {"measurement": "Body weight before modeling", "setting": "[1]; Example 1 POI mice", "value": "18.79 ± 0.80", "unit": "g"},
      {"measurement": "Body weight after modeling", "setting": "[1]; Example 1 POI mice", "value": "17.69 ± 1.03", "unit": "g"},
      {"measurement": "Body weight after treatment", "setting": "[1]; Example 1 POI mice", "value": "17.96 ± 1.20", "unit": "g"},
      {"measurement": "Weight recovery after chemotherapy", "setting": "[1]; Example 1 POI mice, FIG. 2A", "value": "significantly beneficial"},
      {"measurement": "Body weight before modeling", "setting": "[1]; Example 2 POI mice", "value": "18.32 ± 1.61", "unit": "g"},
      {"measurement": "Body weight after modeling", "setting": "[1]; Example 2 POI mice", "value": "16.31 ± 2.02", "unit": "g"},
      {"measurement": "Body weight after treatment", "setting": "[1]; Example 2 POI mice", "value": "17.10 ± 2.24", "unit": "g"},
      {"measurement": "Weight recovery after chemotherapy", "setting": "[1]; Example 2 POI mice, FIG. 2B", "value": "significantly beneficial"},
      {"measurement": "Activity of SOD compared with the normal saline group", "setting": "[2]; FIG. 9, difference not significant", "value": "increased"},
      {"measurement": "SOD", "setting": "[2]; [9]", "value": "14.59 ± 5.65", "unit": "U/mL"},
      {"measurement": "Serum E2 level compared with the normal saline group", "setting": "[3]; Example 1, FIG. 7", "value": "tendency to increase"},
      {"measurement": "Serum E2 level compared with the normal saline group", "setting": "[3]; [10]", "value": "certain tendency to decrease"},
      {"measurement": "E2", "setting": "[3]; Example 1 POI mice", "value": "49.69 ± 7.11", "unit": "pg/mL"},
      {"measurement": "E2", "setting": "[3]; Example 2 POI mice", "value": "42.96 ± 14.28", "unit": "pg/mL"},
      {"measurement": "Number of genes down-regulated compared with the control group", "setting": "[4]", "value": 4749, "unit": "genes"},
      {"measurement": "Number of genes up-regulated compared with the control group", "setting": "[4]", "value": 1898, "unit": "genes"},
      {"measurement": "Serum FSH level compared with the normal saline group", "setting": "[5]; Example 1, FIG. 6", "value": "decreasing trend"},
      {"measurement": "Serum FSH level compared with the normal saline group", "setting": "[5]; [10]", "value": "certain decreasing trend"},
      {"measurement": "FSH", "setting": "[5]; Example 1 POI mice", "value": "4.85 ± 2.34", "unit": "mIU/mL"},
      {"measurement": "FSH", "setting": "[5]; Example 2 POI mice", "value": "1.65 ± 0.76", "unit": "mIU/mL"},
      {"measurement": "ROS levels compared with the normal saline group", "setting": "[6]; FIG. 11", "value": "significantly reduced"},
      {"measurement": "ROS", "setting": "[6]; relative ROS level in serum, POI mice after treatment", "value": "4.589 ± 0.599"},
      {"measurement": "MDA activity compared with the normal saline group", "setting": "[7]; FIG. 10, no significant difference", "value": "reduced to some extent"},
      {"measurement": "MDA", "setting": "[7]; [9]", "value": "2.86 ± 4.39", "unit": "nmol/mL"},
      {"measurement": "Activity of LDH compared with the normal saline group", "setting": "[8]; FIG. 12", "value": "reduced to some extent"},
      {"measurement": "LDH", "setting": "[8]; [9]", "value": "2821.58 ± 318.30", "unit": "U/mL"}
    ]}
  ]
}
